Experimental data: ChEMBL document CHEMBL1201862, “PubChem BioAssay data set” (2004)
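These data come from cells grown in 96-well plates and exposed to compound for 48 hours at five concentrations. At the GI50, growth is halved.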 Activity calls are given as the source filed them. No stated cut-off is given here; in the data, active = GI50 up to about 1.1 µM and inactive = higher.

Assays:
Test in all cases: growth of human tumour cells (NCI), 48 h
[1] = tested on: A498
[2] = tested on: BT-549
[3] = tested on: KM12
[4] = tested on: LOX IMVI
[5] = tested on: M14
[6] = tested on: MCF7
[7] = tested on: MOLT-4
[8] = tested on: Malme-3M
[9] = tested on: NCI-H23
[10] = tested on: NCI-H460
[11] = tested on: NCI/ADR-RES
[12] = tested on: OVCAR-5
[13] = tested on: SF-539
[14] = tested on: SR
[15] = tested on: HOP-18
[16] = tested on: SK-MEL-2
[17] = tested on: SNB-78
[18] = tested on: XF498
[19] = tested on: LXFL 529
[20] = tested on: M19-MEL

Compound	GI50 [1]	GI50 [2]	GI50 [3]	GI50 [4]	GI50 [5]	GI50 [6]	GI50 [7]	GI50 [8]	GI50 [9]	GI50 [10]	GI50 [11]	GI50 [12]	GI50 [13]	GI50 [14]	GI50 [15]	GI50 [16]	GI50 [17]	GI50 [18]	GI50 [19]	GI50 [20]
COC(=O)C#Cc1cccc(OC)c1OC	45 µM (inactive)	62.2 µM (inactive)	45.4 µM (inactive)	33.7 µM (inactive)	49.7 µM (inactive)	19.7 µM (inactive)	14 µM (inactive)	28 µM (inactive)	41.3 µM (inactive)	48.1 µM (inactive)	30.3 µM (inactive)	22.5 µM (inactive)	21.6 µM (inactive)	18.7 µM (inactive)						
N=C(N)Nc1ncccc1[N+](=O)[O-]	> 100 µM (inactive)		57.4 µM (inactive)	33.1 µM (inactive)		25.7 µM (inactive)	> 100 µM (inactive)	44.6 µM (inactive)	> 100 µM (inactive)	51.8 µM (inactive)	> 100 µM (inactive)	> 100 µM (inactive)	53.6 µM (inactive)		> 100 µM (inactive)	> 100 µM (inactive)	> 100 µM (inactive)	> 100 µM (inactive)		
C/N=c1/ssc(=S)n1C(C)C			25.2 µM (inactive)		12.8 µM (inactive)		10.8 µM (inactive)		12.2 µM (inactive)	24.2 µM (inactive)			25.8 µM (inactive)			42 µM (inactive)			4.18 µM (inactive)	13.7 µM (inactive)
CCOC(=O)c1csc(NC(=O)CCN(CC)CC)n1	91.2 µM (inactive)		23.5 µM (inactive)	33.2 µM (inactive)	25 µM (inactive)	26 µM (inactive)	32.7 µM (inactive)		64.7 µM (inactive)	> 100 µM (inactive)	40.2 µM (inactive)	> 100 µM (inactive)	26.9 µM (inactive)	21.9 µM (inactive)		55.7 µM (inactive)				
Cc1c2c(cc3c1[nH]c1ccccc13)C=NCC2	10.5 µM (inactive)		8.65 µM (inactive)	8.09 µM (inactive)		2.92 µM (inactive)	7.69 µM (inactive)	6.61 µM (inactive)	19.7 µM (inactive)	8.53 µM (inactive)	12.2 µM (inactive)	22 µM (inactive)	6.37 µM (inactive)		9.62 µM (inactive)	10.1 µM (inactive)	19.7 µM (inactive)	7.14 µM (inactive)		11.1 µM (inactive)
OCCNCN(CNCCO)c1nc(N(CNCCO)CNCCO)nc(N(CNCCO)CNCCO)n1	0.0764 µM (active)		0.137 µM (active)	0.0916 µM (active)	0.0577 µM (active)		0.0873 µM (active)	0.04 µM (active)	0.0655 µM (active)	0.118 µM (active)		0.146 µM (active)	0.075 µM (active)		0.0841 µM (active)	0.0838 µM (active)	0.0959 µM (active)	> 0.4 µM (active)	0.04 µM (active)	0.0405 µM (active)
COc1ccc(OC)c(NC(=O)C(=O)C(C(=O)c2ccccc2F)C2OC(=O)c3ccccc32)c1 (stereo not given)	> 100 µM (inactive)		> 100 µM (inactive)	25.2 µM (inactive)	> 100 µM (inactive)		26.3 µM (inactive)		57.1 µM (inactive)	44.8 µM (inactive)		79.4 µM (inactive)	26.9 µM (inactive)	23.5 µM (inactive)		43.1 µM (inactive)	36.8 µM (inactive)	34.8 µM (inactive)	77.3 µM (inactive)	29.1 µM (inactive)
N/C(=C\c1ccc(/C=C(\NC(=O)c2ccccc2)c2nc3c([nH]2)C(=O)c2ccccc2C3=O)cc1)c1nc2c([nH]1)C(=O)c1ccccc1C2=O	13.6 µM (inactive)		13.7 µM (inactive)	18.1 µM (inactive)	16.2 µM (inactive)		6.7 µM (inactive)		14.3 µM (inactive)	17.5 µM (inactive)		18.9 µM (inactive)	16.6 µM (inactive)		14.3 µM (inactive)		20.6 µM (inactive)	11.6 µM (inactive)	10.7 µM (inactive)	
CCOC(=O)/C=C(\C)c1ccc(OC)cc1	89.3 µM (inactive)		> 100 µM (inactive)	> 100 µM (inactive)	> 100 µM (inactive)			> 100 µM (inactive)	> 100 µM (inactive)	> 100 µM (inactive)		> 100 µM (inactive)	> 100 µM (inactive)	> 100 µM (inactive)	> 100 µM (inactive)	> 100 µM (inactive)	> 100 µM (inactive)	> 100 µM (inactive)	> 100 µM (inactive)	
COc1nc(Cl)c(Cl)c(Cl)n1.COc1nc(Cl)nc(Cl)c1Cl	8.61 µM (inactive)	9.93 µM (inactive)	0.485 µM (active)	2.66 µM (inactive)	8.36 µM (inactive)	2.62 µM (inactive)	0.603 µM (active)	10.6 µM (inactive)	6.71 µM (inactive)	5.6 µM (inactive)	7.87 µM (inactive)	30.9 µM (inactive)	9.35 µM (inactive)	0.09 µM (active)		7.62 µM (inactive)				
CCOC(=O)C(NC(=O)CC)(Nc1ccccc1OC)C(F)(F)F (stereo not given)			> 100 µM (inactive)	> 100 µM (inactive)	> 100 µM (inactive)	> 100 µM (inactive)	> 100 µM (inactive)		> 100 µM (inactive)	> 100 µM (inactive)	> 100 µM (inactive)	> 100 µM (inactive)	> 100 µM (inactive)	> 100 µM (inactive)		> 100 µM (inactive)				
CCCCOc1ccc(OCCCCCCCCCC[N+](C)(C)C)cc1	9.93 µM (inactive)		1.48 µM (inactive)	1.53 µM (inactive)		3.44 µM (inactive)	1.38 µM (inactive)	4.37 µM (inactive)	1.95 µM (inactive)	2.54 µM (inactive)	58.9 µM (inactive)	4.65 µM (inactive)	3.24 µM (inactive)		3.42 µM (inactive)	2.01 µM (inactive)	2.38 µM (inactive)	1.71 µM (inactive)		
CCOC(=O)/C(C#N)=C1/SC(C(=O)N/N=C/c2ccc(OC)cc2)=C(N)N1c1ccccc1			> 100 µM (inactive)				> 100 µM (inactive)		> 100 µM (inactive)	72.8 µM (inactive)		> 100 µM (inactive)	1.16 µM (inactive)	> 100 µM (inactive)	> 100 µM (inactive)				60.4 µM (inactive)	> 100 µM (inactive)
O=C(O[C@@H](/C=C/c1ccccc1)P1(=O)N(Cc2ccccc2)[C@H]2CCCC[C@@H]2N1Cc1ccccc1)c1ccccc1	2.12 µM (inactive)	5.96 µM (inactive)	3.41 µM (inactive)	3.54 µM (inactive)	4.18 µM (inactive)	2.32 µM (inactive)		4.2 µM (inactive)	2.96 µM (inactive)	2.01 µM (inactive)	3.52 µM (inactive)	3.86 µM (inactive)	4.57 µM (inactive)	2.86 µM (inactive)		1.85 µM (inactive)				
Nc1[nH]cnc2ncnc1-2 [ADENINE]	7.14 µM (inactive)		153 µM (inactive)	140 µM (inactive)		> 21.3 µM (inactive)					46.2 µM (inactive)	> 250 µM (inactive)	49.7 µM (inactive)		109 µM (inactive)	> 250 µM (inactive)	114 µM (inactive)	9.4 µM (inactive)		> 141 µM (inactive)
COc1ccc(/C=N/N=C(N)N)c(C(=O)O)c1OC	> 100 µM (inactive)		> 100 µM (inactive)		> 100 µM (inactive)		> 100 µM (inactive)		> 100 µM (inactive)	> 100 µM (inactive)			> 100 µM (inactive)		> 100 µM (inactive)		> 100 µM (inactive)		> 100 µM (inactive)	
Nc1nc(SCCNC(=O)CCc2ccc(O)c(I)c2)nc2c1ncn2C1OC(CO)C(O)C1O (stereo not given)	> 100 µM (inactive)		> 100 µM (inactive)		> 100 µM (inactive)		> 100 µM (inactive)	> 100 µM (inactive)	> 100 µM (inactive)	> 100 µM (inactive)		> 100 µM (inactive)	> 100 µM (inactive)	> 100 µM (inactive)		> 100 µM (inactive)	> 100 µM (inactive)	> 100 µM (inactive)	> 100 µM (inactive)	> 100 µM (inactive)
CC1(C)C(O)C[C@@H](O)[C@@]2(C)C1CC[C@]1(C)C2C[C@@H](O)[C@@H]2C([C@@]3(C)CC[C@@H](C(C)(C)O)O3)CCC21C (stereo not given in full)	17.3 µM (inactive)		15.9 µM (inactive)	11 µM (inactive)	13.8 µM (inactive)		22 µM (inactive)	13.4 µM (inactive)	17.4 µM (inactive)	18.9 µM (inactive)		16.1 µM (inactive)	14.2 µM (inactive)	8.83 µM (inactive)	16.8 µM (inactive)	14.7 µM (inactive)	21.3 µM (inactive)	18.2 µM (inactive)	10.2 µM (inactive)	
CSc1nc(NC2OCC(O)C(O)C2O)c(N)c(=O)[nH]1 (stereo not given)	> 100 µM (inactive)		> 100 µM (inactive)	> 100 µM (inactive)		> 100 µM (inactive)	> 100 µM (inactive)	> 100 µM (inactive)	> 100 µM (inactive)	> 100 µM (inactive)	> 100 µM (inactive)	> 100 µM (inactive)	> 100 µM (inactive)		> 100 µM (inactive)	> 100 µM (inactive)	> 100 µM (inactive)			> 100 µM (inactive)
